We go through 32 compounds from US10071957B2, “N-substituted benzamides and methods of use thereof” (GENENTECH, INC., priority 2012, dated 2018).

Structures are written as SMILES.

The target of this assay is hNaV1.7 (Homo sapiens (Human), UniProt Q15858). Kind of assay: Competitive binding of tritiated compound to membranes from cells expressing hNav1.7 and the β1 subunit. The settings on record: 100 pM [3H]compound, 18 h, room temperature; read-out: NaV1.7 395 Membrane Binding IC50. As to the method: Tritiated compound binding to membranes isolated from cells that heterologously express hNav1.7 and the β1 subunit
hNaV1.7, sequence (Q15858 whole entry, looked up): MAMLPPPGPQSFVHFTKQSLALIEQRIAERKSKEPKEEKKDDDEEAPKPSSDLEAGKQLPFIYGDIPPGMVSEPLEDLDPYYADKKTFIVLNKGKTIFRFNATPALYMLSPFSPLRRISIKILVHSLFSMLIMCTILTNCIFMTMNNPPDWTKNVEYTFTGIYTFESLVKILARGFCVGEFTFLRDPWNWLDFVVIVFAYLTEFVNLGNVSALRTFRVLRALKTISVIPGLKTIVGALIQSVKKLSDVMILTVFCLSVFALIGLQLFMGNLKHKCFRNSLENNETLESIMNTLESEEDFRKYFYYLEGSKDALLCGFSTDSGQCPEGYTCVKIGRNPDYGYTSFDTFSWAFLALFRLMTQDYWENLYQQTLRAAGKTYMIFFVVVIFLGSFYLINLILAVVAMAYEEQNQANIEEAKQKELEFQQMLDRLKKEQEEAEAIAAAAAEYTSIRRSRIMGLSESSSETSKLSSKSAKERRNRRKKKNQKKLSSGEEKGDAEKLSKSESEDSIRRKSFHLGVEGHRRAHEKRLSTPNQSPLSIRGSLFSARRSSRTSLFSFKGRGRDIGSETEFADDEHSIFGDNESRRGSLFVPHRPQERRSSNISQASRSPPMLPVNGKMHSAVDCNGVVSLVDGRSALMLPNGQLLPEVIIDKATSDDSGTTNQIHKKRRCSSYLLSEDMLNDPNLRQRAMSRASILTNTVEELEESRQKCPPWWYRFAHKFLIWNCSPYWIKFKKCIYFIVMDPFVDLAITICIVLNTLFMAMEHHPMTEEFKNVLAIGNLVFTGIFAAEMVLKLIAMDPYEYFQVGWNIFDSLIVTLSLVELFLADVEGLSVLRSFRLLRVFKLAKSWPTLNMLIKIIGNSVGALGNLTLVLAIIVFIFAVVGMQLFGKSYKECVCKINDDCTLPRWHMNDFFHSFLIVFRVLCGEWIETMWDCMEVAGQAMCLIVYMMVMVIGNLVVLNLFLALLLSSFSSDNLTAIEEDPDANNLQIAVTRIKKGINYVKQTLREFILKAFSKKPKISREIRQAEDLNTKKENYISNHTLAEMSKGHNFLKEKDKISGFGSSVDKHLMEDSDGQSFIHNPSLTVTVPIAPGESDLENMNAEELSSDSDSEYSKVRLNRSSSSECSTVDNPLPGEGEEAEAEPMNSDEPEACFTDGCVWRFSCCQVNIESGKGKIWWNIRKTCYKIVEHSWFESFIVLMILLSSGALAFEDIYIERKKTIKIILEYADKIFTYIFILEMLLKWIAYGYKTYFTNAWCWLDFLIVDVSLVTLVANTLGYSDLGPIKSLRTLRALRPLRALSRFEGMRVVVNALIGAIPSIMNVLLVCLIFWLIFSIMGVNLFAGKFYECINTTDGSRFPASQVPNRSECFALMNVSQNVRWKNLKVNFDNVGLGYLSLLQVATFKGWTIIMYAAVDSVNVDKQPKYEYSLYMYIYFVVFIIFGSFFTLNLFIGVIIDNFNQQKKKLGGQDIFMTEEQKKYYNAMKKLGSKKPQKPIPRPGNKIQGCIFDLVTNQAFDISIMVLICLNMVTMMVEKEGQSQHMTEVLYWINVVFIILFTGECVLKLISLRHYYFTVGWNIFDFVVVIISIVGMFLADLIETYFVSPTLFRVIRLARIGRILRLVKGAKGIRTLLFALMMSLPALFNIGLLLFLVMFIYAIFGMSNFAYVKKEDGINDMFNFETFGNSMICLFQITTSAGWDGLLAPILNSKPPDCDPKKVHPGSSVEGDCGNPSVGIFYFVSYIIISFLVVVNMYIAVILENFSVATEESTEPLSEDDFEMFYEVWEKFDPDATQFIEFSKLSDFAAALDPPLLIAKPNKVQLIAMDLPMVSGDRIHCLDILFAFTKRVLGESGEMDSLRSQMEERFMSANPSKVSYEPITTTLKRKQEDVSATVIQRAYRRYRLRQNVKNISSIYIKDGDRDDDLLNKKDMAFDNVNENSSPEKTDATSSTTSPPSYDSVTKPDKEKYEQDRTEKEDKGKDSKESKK
hNaV1.7, sequence (Q07699 whole entry partner, looked up): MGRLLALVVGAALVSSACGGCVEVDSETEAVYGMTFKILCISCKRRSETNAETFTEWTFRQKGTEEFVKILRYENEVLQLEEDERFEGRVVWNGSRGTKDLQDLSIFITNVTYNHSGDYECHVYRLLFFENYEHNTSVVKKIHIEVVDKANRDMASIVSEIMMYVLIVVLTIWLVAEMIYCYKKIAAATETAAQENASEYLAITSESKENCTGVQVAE
Preparation of membranes containing recombinantly expressed sodium channels: Frozen recombinant cell pellets were thawed on ice and diluted to 4 times the cell pellet weight with ice cold 50 mM Tris HCl, pH 7.4 buffer. The cell suspensions were homogenized on ice using a motorized glass dounce homogeniser. Homogenates were further diluted 8.4 times with ice cold 50 mM Tris HCl, pH 7.4 buffer and then centrifuged at 200×g at 4° C. for 15 min. The supernatants were collected and centrifuged at 10000×g at 4° C. for 50 min. The pellets were then re-suspended in 100 mM NaCl, 20 mM Tris HCl, pH 7.4 buffer containing 1% v/v protease inhibitors (Calbiochem) and re-homogenized on ice. The homogenized membranes were then processed through a syringe equipped with a 26 gauge needle. Protein concentrations were determined by Bradford Assay and the membranes were stored at −80° C.
Radioligand Binding Studies: Saturation experiments. A representative compound of formula (I) was tritiated. Three tritiums were incorporated in place of methyl hydrogens to generate [^3H]compound. Binding of this radioligand was performed in 5 mL borosilicate glass test tubes at room temperature. Binding was initiated by adding membranes to increasing concentrations of [^3H]compound in 100 mM NaCl, 20 mM Tris HCl, pH 7.4 buffer containing 0.01% w/v bovine serum albumin (BSA) for 18 h. Non-specific binding was determined in the presence of 1 μM unlabelled compound. After 18 h, the reactants were filtered through GF/C glass fiber filters presoaked in 0.5% w/v polyethylene imine. Filters were washed with 15 mL ice cold 100 mM NaCl, 20 mM Tris HCl, pH 7.4 buffer containing 0.25% BSA to separate bound from free ligand. [^3H]compound bound to filters was quantified by liquid scintillation counting.
Competitive binding experiments. Binding reactions were performed in 96-well polypropylene plates at room temperature for 18 h. In 360 μL, membranes were incubated with 100 pM [^3H]compound and increasing concentrations of Test Compound. Non-specific binding was defined in the presence of 1 μM unlabelled compound. Reactions were transferred and filtered through 96-well glass fiber/C filter plates presoaked with 0.5% polyethylene imine. The filtered reactions were washed 5 times with 200 μL ice cold buffer containing 0.25% BSA. Bound radioactivity was determined by liquid scintillation counting.
Data Analysis: For saturation experiments, non-specific binding was subtracted from total binding to provide specific binding and these values were recalculated in terms of pmol ligand bound per mg protein. Saturation curves were constructed and dissociation constants were calculated using the single site ligand binding model: Beq=(Bmax*X)/(X+Kd), where Beq is the amount of ligand bound at equilibrium, Bmax is the maximum receptor density, Kd is the dissociation constant for the ligand, and X is the free ligand concentration. For competition studies percent inhibition was determined and IC50 values were calculated using a 4 parameter logistic model (% inhibition=(A+((B−A)/(1+((x/C)^D)))) using XLfit, where A and B are the maximal and minimum inhibition respectively, C is the IC50 concentration and D is the (Hill) slope.
Take `CN(C)S(=O)(=O)NC(=O)c1cc(Cl)c(Oc2cccc3ncccc23)cc1F` [Preparation 71, 5-chloro-N-(N,N-dimethylsulfamoyl)-2-fluoro-4-(quinolin-5-yloxy)benzamide]: the IC50 – broadly, the point on the concentration scale where inhibition reaches its midpoint – stood at 20000 nM. In the case of `CNS(=O)(=O)NC(=O)c1cc(Cl)c(COc2cnc(OC(C)C)c(Cl)c2)cc1F` [Preparation 77] it was 140 nM; in that of `CC(C)COc1ncc(Oc2cc(F)c(C(=O)NS(N)(=O)=O)cc2C#N)cc1Cl` [Preparation 75, 4-((5-chloro-6-iso-butoxypyridin-3-yl)oxy)-5-cyano-2-fluoro-N-sulfamoyl-benzamide], 290 nM. For `CN(C)S(=O)(=O)NC(=O)c1cc(Cl)c(Oc2ccc3ccccc3c2)cc1F` [Preparation 47, 5-chloro-N-(N,N-dimethylsulfamoyl)-2-fluoro-4-(naphthalen-2-yloxy)benzamide] the value was 4070 nM; for `O=C(NS(=O)(=O)N1CCC1)c1cc(C2CC2)c(COc2ccc(Cl)c(Cl)c2)cc1F` [Preparation 98], 9 nM; for `CC(C)COc1ncc(Oc2cc(F)c(C(=O)NS(=O)(=O)N(C)Cc3ccccc3)cc2Cl)cc1Cl` [Preparation 19, N-(N-benzyl-N-methylsulfamoyl)-5-chloro-4-((5-chloro-6-isobutoxypyridin-3-yl)oxy)-2-fluoro-benzamide], 4440 nM. For `CNS(=O)(=O)NC(=O)c1ccc(Oc2cnc(OC(C)C)c(Cl)c2)c(-c2cccnc2OC)c1` [Preparation 83], the IC50 came out at 43 nM. For `NS(=O)(=O)NC(=O)c1cc(Cl)c(Oc2cnc(OCC(F)(F)C(F)F)c(Cl)c2)cc1F` [Preparation 37, 5-chloro-4-((5-chloro-6-(2,2,3,3-tetrafluoro-propoxy)pyridin-3-yl)oxy)-2-fluoro-N-sulfamoylbenzamide] the value was 171 nM; for `CC(C)COc1ncc(Oc2cc(F)c(C(=O)NS(=O)(=O)NCc3ccccc3)cc2Cl)cc1Cl` [Preparation 18, N-(N-benzyl-sulfamoyl)-5-chloro-4-((5-chloro-6-isobutoxy-pyridin-3-yl)oxy)-2-fluorobenzamide], 4180 nM; for `CN(C)S(=O)(=O)NC(=O)c1cc(Cl)c(Oc2ccc3ncccc3c2)cc1F` [Preparation 72, 5-chloro-N-(N,N-dimethylsulfamoyl)-2-fluoro-4-(quinolin-6-yloxy)benzamide], 9600 nM. As to `CN(C)S(=O)(=O)NC(=O)c1cc(Cl)c(Oc2cc(OC(F)(F)F)ccc2F)cc1F` [Preparation 70, 5-chloro-N-(N,N-dimethylsulfamoyl)-2-fluoro-4-(2-fluoro-5-(trifluoromethoxy)phenoxy)benzamide], the IC50 was 340 nM.

As to `O=C(NS(=O)(=O)N1CCC1)c1cc(C2CC2)c(COc2cc(Cl)cc(Cl)c2)cc1F` [Preparation 96], the IC50 was 0.3 nM. For `Cc1cc(Oc2cc(F)c(C(=O)NS(=O)(=O)N(C)C)cc2Cl)cc(C)c1C#N` [Preparation 74, 5-chloro-4-(4-cyano-3,5-dimethylphenoxy)-N-(N,N-dimethyl-sulfamoyl)-2-fluoro-benzamide] the value was 11000 nM; for `CN(C)S(=O)(=O)NC(=O)c1cc(Cl)c(Oc2cccc3cnccc23)cc1F` [Preparation 60, 5-chloro-N-(N,N-dimethylsulfamoyl)-2-fluoro-4-(isoquinolin-5-yloxy)benzamide], 20000 nM. For `CN(C)S(=O)(=O)NC(=O)c1cc(Cl)c(Oc2ccc(F)c(F)c2)cc1F` [Preparation 49, 5-chloro-4-(3,4-difluorophenoxy)-N-(N,N-dimethyl-sulfamoyl)-2-fluorobenzamide] the value was 3470 nM. As to `CN(C)S(=O)(=O)NC(=O)c1cc(Cl)c(Oc2ccc(S(C)(=O)=O)cc2)cc1F` [Preparation 61, 5-chloro-N-(N,N-dimethylsulfamoyl)-2-fluoro-4-(4-(methyl-sulfonyl)phenoxy) benzamide], the IC50 is 20000 nM. For `CC(C)Oc1ncc(Oc2cc(F)c(C(=O)NS(=O)(=O)N3CCC3)cc2C2(O)COC2)cc1Cl` [Preparation 89] the value was 1300 nM; for `CN(C)S(=O)(=O)NC(=O)c1cc(Cl)c(Oc2ccc3cnn(C)c3c2)cc1F` [Preparation 62, 5-chloro-N-(N,N-dimethylsulfamoyl)-2-fluoro-4-((1-methyl-1H-indazol-6-yl)oxy) benzamide], 14000 nM; for `COc1ncccc1-c1cc(C(=O)NS(=O)(=O)N2CCC2)ccc1Oc1ccc(OC(F)(F)F)c(Cl)c1` [Preparation 97], 52 nM. For `CC(C)COc1ncc(Oc2cc(F)c(C(=O)NS(=O)(=O)NC(=O)OC(C)(C)C)cc2Cl)cc1Cl` [Preparation 29, tert-butyl N-(5-chloro-4-((5-chloro-6-isobutoxy-pyridin-3-yl)oxy)-2-fluorobenzoyl) sulfamoylcarbamate] the value was 905 nM. For `NS(=O)(=O)NC(=O)c1cc(Cl)c(COc2cnc(OCC(F)(F)C(F)F)c(Cl)c2)cc1F` [Preparation 36, 5-chloro-4-(((5-chloro-6-(2,2,3,3-tetrafluoropropoxy)pyridin-3-yl)oxy)methyl)-2-fluoro-N-sulfamoylbenzamide] the value was 460 nM; for `CNS(=O)(=O)NC(=O)c1cc(C2CC2)c(Oc2cnc(OC(C)C)c(Cl)c2)cc1F` [Preparation 90], 6 nM; for `CN(C)S(=O)(=O)NC(=O)c1cc(Cl)c(COc2cnc(OCC(F)(F)C(F)F)c(Cl)c2)cc1F` [Preparation 39, 5-chloro-4-(((5-chloro-6-(2,2,3,3-tetrafluoro-propoxy)pyridin-3-yl)oxy)methyl)-N-(N,N-dimethyl-sulfamoyl)-2-fluoro-benzamide], 216 nM. On to `NS(=O)(=O)NC(=O)c1cc(Cl)c(Oc2ccc(F)c(F)c2)cc1F` [Preparation 50, 5-chloro-4-(3,4-difluorophenoxy)-2-fluoro-N-sulfamoylbenzamide], for which the half-maximal inhibitory concentration (IC50) was determined as 656 nM. In the case of `CNS(=O)(=O)NC(=O)c1cc(Cl)c(COc2ccc(Cl)c(C(F)(F)F)c2)cc1F` [Preparation 78] it was 35 nM.

`CNS(=O)(=O)NC(=O)c1cc(Cl)c(Oc2cnc(OCC(F)(F)C(F)F)c(Cl)c2)cc1F` [Preparation 33, 5-chloro-4-((5-chloro-6-(2,2,3,3-tetrafluoro-propoxy)pyridin-3-yl)oxy)-2-fluoro-N-(N-methylsulfamoyl) benzamide]: the IC50 was found to be 22.8 nM. Take `CCCCN(CCCC)S(=O)(=O)NC(=O)c1cc(Cl)c(Oc2cnc(OCC(C)C)c(Cl)c2)cc1F` [Preparation 13, 5-chloro-4-((5-chloro-6-isobutoxypyridin-3-yl)oxy)-N-(N,N-dibutylsulfamoyl)-2-fluorobenzamide]: the half-inhibitory concentration (IC50) amounted to 3640 nM.

On to `O=C(NS(=O)(=O)N1CCC1)c1cc(C2CC2)c(COc2cc(Cl)cc(OC(F)(F)F)c2)cc1F` [Preparation 95], for which the IC50 turned out to be 2 nM. For `O=C(NS(=O)(=O)N1CCC1)c1ccc(Oc2ccc(OC(F)(F)F)c(Cl)c2)c(C2(O)COC2)c1` [Preparation 81] the value was 20200 nM. Consider `Cc1cc2cc(Oc3cc(F)c(C(=O)NS(=O)(=O)N(C)C)cc3Cl)ccc2[nH]1` [Preparation 59, 5-chloro-N-(N,N-dimethylsulfamoyl)-2-fluoro-4-((2-methyl-1H-indol-5-yl)oxy) benzamide], for which the IC50 came out at 5200 nM. In the case of `O=C(NS(=O)(=O)N1CCC1)c1cc(Cl)c(Oc2cnc(OCC(F)(F)F)c(Cl)c2)cc1F` [Preparation 93] it was 16 nM. In the case of `O=C(NS(=O)(=O)N1CCC1)c1cc(Cl)c(COc2cnc(OCC(F)(F)C(F)F)c(Cl)c2)cc1F` [Preparation 101] it was 68 nM.
